Columns and labels:
Assay in all cases: relative viability (nuclei count vs DMSO), 5 days (fraction); higher = more cells survive
[1] = compound: CN1CCN(CC1)C2=CC(=C(C=C2)NC3=NC(=C(S3)C(=O)C4=C(C=CC=C4Cl)Cl)N)OC [XMD14-99] + O=C(c1cc(Cc2n[nH]c(=O)c3ccccc23)ccc1F)N1CCN(C(=O)C2CC2)CC1 [Olaparib] (partner 8 µM)
How it was run: (§1)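 Lung cancer cell lines, seeded in 1536-well plates, were treated the following day by pin tool with a single drug or with five library-drug doses (not always all listed) in √10 steps on top of a fixed anchor-drug dose. Cells were fixed and nuclei stained in one step after 5 days, and nuclei were counted. Relative viability is the nuclei count for treated wells divided by that for vehicle wells, reported as medians of duplicate plates.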

[2] = compound: CN1CCN(CC1)C2=CC(=C(C=C2)NC3=NC(=C(S3)C(=O)C4=C(C=CC=C4Cl)Cl)N)OC [XMD14-99] + C[C@]1(O)C[C@@H](c2nc(-c3ccc4ccc(-c5ccccc5)nc4c3)c3c(N)nccn32)C1 [Linsitinib] (partner 1 µM)
How it was run: as §1

[3] = compound: CN1CCN(CC1)C2=CC(=C(C=C2)NC3=NC(=C(S3)C(=O)C4=C(C=CC=C4Cl)Cl)N)OC [XMD14-99] + CC(C)C[C@H](NC(=O)[C@H](Cc1ccccc1)NC(=O)c1cnccn1)B(O)O [Bortezomib] (partner 0.002 µM)
How it was run: as §1

[4] = compound: CN1CCN(CC1)C2=CC(=C(C=C2)NC3=NC(=C(S3)C(=O)C4=C(C=CC=C4Cl)Cl)N)OC [XMD14-99] + CS(=O)(=O)CCNCc1ccc(-c2ccc3ncnc(Nc4ccc(OCc5cccc(F)c5)c(Cl)c4)c3c2)o1 [Lapatinib] (partner 2 µM)
How it was run: as §1

[5] = compound: CN1CCN(CC1)C2=CC(=C(C=C2)NC3=NC(=C(S3)C(=O)C4=C(C=CC=C4Cl)Cl)N)OC [XMD14-99] + Cc1cc(Nc2cc(N3CCN(C)CC3)nc(Sc3ccc(NC(=O)C4CC4)cc3)n2)n[nH]1 [Tozasertib] (partner 0.1 µM)
How it was run: as §1

Cell Line	relative viability ([1]; first compound 0.08 µM)	relative viability ([1]; first compound 0.8 µM)	relative viability ([1]; first compound 2.53 µM)	relative viability ([1]; first compound 8 µM)	relative viability ([2]; first compound 0.08 µM)	relative viability ([2]; first compound 0.8 µM)	relative viability ([2]; first compound 2.53 µM)	relative viability ([2]; first compound 8 µM)	relative viability ([3]; first compound 0.08 µM)	relative viability ([3]; first compound 0.8 µM)	relative viability ([3]; first compound 2.53 µM)	relative viability ([3]; first compound 8 µM)	relative viability ([4]; first compound 0.08 µM)	relative viability ([4]; first compound 0.8 µM)	relative viability ([4]; first compound 2.53 µM)	relative viability ([4]; first compound 8 µM)	relative viability ([5]; first compound 0.08 µM)	relative viability ([5]; first compound 0.8 µM)	relative viability ([5]; first compound 2.53 µM)	relative viability ([5]; first compound 8 µM)
NCI-H3122	0.671	0.682	0.62	0.441	1	1.02	0.88	0.678	0.965	0.948	0.913	0.692	0.982	0.965	0.879	0.746	0.407	0.314	0.295	0.179
NCI-H1755	0.888	0.815	0.835	0.622	1.02	0.989	1.02	0.736	0.854	0.947	0.859	0.795	1.08	1.01	0.955	0.827	0.519	0.531	0.478	0.512
HCC-78	0.716	0.799	0.724	0.589	0.526	0.477	0.509	0.446	0.443	0.482	0.461	0.47	0.911	0.751	0.858	0.648	0.407	0.335	0.398	0.347
LOU-NH91	0.904	0.919	0.891	0.692	0.963	1	0.924	0.865	0.498	0.416	0.451	0.447	0.706	0.841	0.76	0.64	0.709	0.631	0.645	0.533
NCI-H322M	0.807	0.8	0.75	0.617	0.903	0.959	0.951	0.845	1.12	1.33	1.44	1.24	0.573	0.583	0.609	0.598	0.501	0.488	0.558	0.414
HCC-827	0.596	0.632	0.622	0.491	0.991	0.86	0.828	0.802	1.12	0.994	0.976	0.802	0.182	0.205	0.188	0.197	0.393	0.394	0.342	0.404
SW 1573	0.445	0.457	0.488	0.308	0.723	0.785	0.782	0.885	1.09	0.868	0.932	0.936	1.06	1.17	1.21	0.985	0.168	0.286	0.198	0.21
NCI-H1975	0.705	0.861	0.743	0.522	0.872	0.97	0.81	0.663	0.388	0.359	0.347	0.272	0.906	0.938	0.801	0.727	0.693	0.733	0.656	0.281
NCI-H1651	0.187	0.203	0.147	0.157	0.941	0.886	0.904	0.84	0.964	0.938	0.981	0.811	0.779	0.823	0.79	0.705	0.767	0.645	0.657	0.556
NCI-H460	0.394	0.432	0.421	0.182	0.685	0.77	0.61	0.331	1.06	1.15	0.983	0.784	0.863	0.977	0.927	0.679	0.408	0.376	0.45	0.188
LCLC-97TM1	0.415	0.351	0.35	0.209	0.162	0.157	0.141	0.176	0.801	0.629	0.625	0.33	1.06	0.815	0.786	0.583	0.401	0.238	0.202	0.211
NCI-H838	0.736	0.754	0.637	0.45	0.948	0.932	0.92	0.681	0.826	0.828	0.674	0.491	0.947	0.993	0.851	0.69	0.265	0.24	0.269	0.194
NCI-H1355	0.72	0.708	0.715	0.493	0.796	0.809	0.74	0.633	1.31	1.2	1.15	0.898	1.03	0.958	1.01	0.61	0.54	0.519	0.408	0.324
HOP-62	0.536	0.634	0.501	0.312	0.965	0.894	0.794	0.894	0.604	0.694	0.863	0.605	1.22	1.06	0.946	0.819	0.375	0.341	0.351	0.241
NCI-H2087	0.506	0.476	0.515	0.382	0.894	0.695	0.679	0.646	0.85	0.705	0.709	0.45	1.07	1.08	0.842	0.702	0.225	0.253	0.228	0.169

Source: the supplement of paper PMC10307832
